Results: patent US12637499B2, “Adrenomedullin analog, method for producing the same, and pharmaceutical use thereof” (priority 2020, dated 2026)
Where two headings read alike, the source gives them in different places. Blank lines part the entries; values can stand above or below the molecule they belong to. Where a SMILES comes first, the peptide text is derived from it. Bridges are numbered along the chain shown (N, C = ends). Where no end group is shown, it is not given here.

Key:
in vitro [1] = assay: in vitro
Description: After the lapse of a predetermined time, a 30-μl portion was taken out of the reaction solution, transferred into 170 μl of 0.1% aqueous solution of trifluoroacetic acid (TFA), and stored at −80° C. until analysis.
Quantitative analysis was performed for AM contained in the thus-obtained samples of a reaction mixture with serum or plasma by using specific fluoroimmunoassay (Tosoh Corporation) with two antibodies differing in their recognition sites. […] In the figure, the abscissa represents reaction time (min), and the ordinate represents concentration of AM (UM).
In the figure, the abscissa represents reaction time (min), and the ordinate represents concentration of AM or an AM analog (μM).
In the figure, the abscissa represents the type of AM or an AM analog, and the ordinate represents residual rates of AM or an AM analog (%).

in vivo [2] = assay: in vivo
Description: Seven-week-old male Wistar rats were prepared, and grown with normal feeds. To determine plasma AM concentrations, 50 nmol/kg of AM or an AM analog was subcutaneously administered. A peripheral blood sample was collected from the tail vein into a Kantan tube® (containing heparin Na, Eiken Chemical Co., Ltd., Tochigi, Japan) at predetermined times (0, 15, 30, 60, and 120 minutes after administration). The tube was centrifuged at 2,000×g. Plasma was collected from the tube, and transferred into a test tube (containing 21 μg of aprotinin and 0.3 mg of EDTA-2Na) and stored. […] In the figure, the abscissa represents elapsed time after subcutaneous administration (hr), and the ordinate represents concentration in plasma of AM or an AM analog (pM). In addition, maximum concentrations in blood (Cmax) of AM or the AM analogs in rat plasma after subcutaneous administration were calculated.

[3] = 50 nmol/kg subcutaneous, Experiment VI
Description: (§1) Eight-week-old male Wistar rats were purchased from Charles River Laboratories Japan, Inc. The rats were grown with normal feeds in the absence of specific pathogens under cycles of a 12-hour light period and a 12-hour dark period. […] To determine plasma AM concentrations, 50 nmol/kg of AM or an AM analog was subcutaneously administered. A peripheral blood sample was collected from the tail vein into a test tube (containing 21 μg of aprotinin and 0.3 mg of EDTA-2Na) at predetermined times (0, 15, 30, 60, and 120 minutes after administration). The test tube was centrifuged at 1,700×g to afford plasma.

in vivo [4] = settings: male, Wistar, rat, sc, 50 nmol/kg; for AUC: in vivo
Description: as §1

in vitro [5] = settings: Experiment VIII; 10^−7 M, 37° C.; 1 hour after the beginning of reaction
Description: The stabilities of the AM analog peptides in serum were evaluated with the same procedure as in Experiment I except the following procedure. […] A reaction mixture containing 4 μL of phosphate buffer, 20 μL of human serum (Sigma-Aldrich Co. LLC, USA), and 14 μL of water was prepared. To the reaction mixture, 2 μL of AM or an AM analog peptide (2×10^−6 M, final concentration: 10^−7 M) was added, and reaction was initiated at 37° C. The reaction was terminated by addition of 160 μL of ELISA buffer to the reaction mixture 0, 1, or 4 hours after the beginning of reaction. […] In the figure, the abscissa represents reaction time (hr), and the ordinate represents concentration in serum of AM or an AM analog (%) represented as relative values to concentration of AM or an AM analog at the beginning of reaction (i.e., 0 hours after the beginning of reaction).

[6] = molecular target: AM type 1 receptor (AMI receptor) (UniProt Q16602 23-461; O60895 43-175, limits assumed); assay: cell-based or functional assay
Chain of AM type 1 receptor (AMI receptor) (Q16602 23-461 limits assumed, chain 1 of 2): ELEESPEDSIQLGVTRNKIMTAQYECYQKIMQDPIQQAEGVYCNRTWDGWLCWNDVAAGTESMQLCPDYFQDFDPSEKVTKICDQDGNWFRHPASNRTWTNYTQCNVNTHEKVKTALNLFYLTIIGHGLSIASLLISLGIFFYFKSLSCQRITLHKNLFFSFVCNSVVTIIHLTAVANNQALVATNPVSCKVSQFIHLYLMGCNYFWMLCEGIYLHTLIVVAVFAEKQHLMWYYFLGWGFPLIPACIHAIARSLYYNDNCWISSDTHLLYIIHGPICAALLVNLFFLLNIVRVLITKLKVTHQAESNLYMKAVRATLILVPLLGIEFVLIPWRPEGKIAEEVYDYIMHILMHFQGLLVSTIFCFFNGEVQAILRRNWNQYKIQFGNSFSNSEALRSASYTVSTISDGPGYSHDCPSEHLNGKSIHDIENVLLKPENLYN
Chain of AM type 1 receptor (AMI receptor) (O60895 43-175 limits assumed, chain 2 of 2): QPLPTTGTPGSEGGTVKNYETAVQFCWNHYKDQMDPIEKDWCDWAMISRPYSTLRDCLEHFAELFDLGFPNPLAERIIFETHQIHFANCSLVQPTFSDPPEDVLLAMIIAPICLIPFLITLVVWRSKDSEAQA

Molecule: CC[C@H](C)[C@H](NC(=O)[C@H](CCC(N)=O)NC(=O)[C@H](Cc1c[nH]cn1)NC(=O)[C@H](C)NC(=O)[C@H](CC(C)C)NC(=O)[C@H](CCCCN)NC(=O)[C@H](CCC(N)=O)NC(=O)[C@@H](NC(=O)[C@@H](NC(=O)[C@@H]1CSSC[C@H](NC(=O)CNC(=O)[C@H](Cc2ccccc2)NC(=O)[C@@H](N)CO)C(=O)N[C@@H](CCCNC(=N)N)C(=O)N[C@@H](Cc2ccccc2)C(=O)NCC(=O)N[C@@H]([C@@H](C)O)C(=O)N1)[C@@H](C)O)C(C)C)C(=O)N[C@@H](Cc1ccc(O)cc1)C(=O)N[C@@H](CCC(N)=O)C(=O)N[C@@H](Cc1ccccc1)C(=O)N[C@H](C(=O)N[C@@H](CC(=O)O)C(=O)N[C@@H](CCCCN)C(=O)N[C@@H](CC(=O)O)C(=O)N[C@@H](CCCCN)C(=O)N[C@@H](CC(=O)O)C(=O)N[C@@H](CC(N)=O)C(=O)N[C@H](C(=O)N[C@@H](C)C(=O)N1CCC[C@H]1C(=O)N[C@@H](C)C(=O)N[C@@H](CO)C(=O)N[C@@H](CCCCN)C(=O)N[C@H](C(=O)N[C@@H](CO)C(=O)N1CCC[C@H]1C(=O)N[C@@H](CCC(N)=O)C(=O)NCC(=O)N[C@@H](Cc1ccc(O)cc1)C(N)=O)[C@@H](C)CC)C(C)C)[C@@H](C)O [[Ala-44]hAM(13-52), SFGCRFGTCTVQKLAHQIYQFTDKDKDNVAPASKISPQGY-CONH2] (H-SFGCRFGTCTVQKLAHQIYQFTDKDKDNVAPASKISPQGY-NH2; disulfide 4-9; N-terminus assumed)
change in amount with the lapse of reaction time in reaction mixture with serum (in vitro [1]; Experiment IV, up to 240 minutes): almost no decrease or only slight decrease in amount | remaining at 4 h (in vitro [1]; serum, pH 7.1): 96.4% | detection in rat plasma after subcutaneous administration (in vivo [2]; 50 nmol/kg subcutaneous, Experiment X): detected in rat plasma 15 minutes after administration | Cmax (in vivo [2]; male, Wistar, rat, in vivo, sc, 50 nmol/kg): 0.777 nM | detection in rat plasma after subcutaneous administration [3]: detected in rat plasma 15 minutes after administration | Cmax relative to that of hAM(1-52) ([3]; rat): ≥ 100 times | AUC (in vivo [4]): 0.578 nM·h | Cmax (in vivo [4]; plasma): 1.17 nM | half-life (in vivo [4]; plasma): 1.37 h

Molecule: CC[C@H](C)[C@H](NC(=O)[C@H](CCC(N)=O)NC(=O)[C@H](Cc1c[nH]cn1)NC(=O)[C@H](C)NC(=O)[C@H](CC(C)C)NC(=O)[C@H](CCCCN)NC(=O)[C@H](CCC(N)=O)NC(=O)[C@@H](NC(=O)[C@@H](NC(=O)[C@@H]1CSSC[C@H](NC(=O)CNC(=O)[C@H](Cc2ccccc2)NC(=O)[C@@H](N)CO)C(=O)N[C@@H](CCCNC(=N)N)C(=O)N[C@@H](Cc2ccccc2)C(=O)NCC(=O)N[C@@H]([C@@H](C)O)C(=O)N1)[C@@H](C)O)C(C)C)C(=O)N[C@@H](Cc1ccc(O)cc1)C(=O)N[C@@H](CCC(N)=O)C(=O)N[C@@H](Cc1ccccc1)C(=O)N[C@H](C(=O)N[C@@H](CC(=O)O)C(=O)N[C@@H](CCCCN)C(=O)N[C@@H](CC(=O)O)C(=O)N[C@@H](CCCCN)C(=O)N[C@@H](CC(=O)O)C(=O)N[C@@H](CC(N)=O)C(=O)N[C@H](C(=O)N[C@@H](C)C(=O)N1CCC[C@H]1C(=O)N[C@@H](CCCNC(=N)N)C(=O)N[C@@H](CO)C(=O)N[C@@H](CCCCN)C(=O)N[C@H](C(=O)N[C@@H](CO)C(=O)N1CCC[C@H]1C(=O)N[C@@H](CCC(N)=O)C(=O)NCC(=O)N[C@@H](Cc1ccc(O)cc1)C(N)=O)[C@@H](C)CC)C(C)C)[C@@H](C)O [hAM(13-52), SFGCRFGTCTVQKLAHQIYQFTDKDKDNVAPRSKISPQGY-CONH2, reference compound]
concentration of AM or AM analog in reaction mixture with serum (in vitro [1]; Experiment IV, 240 minutes after the beginning of reaction): below the detection limit | residual rate in reaction mixture with serum (in vitro [1]; Experiment IV, 240 minutes vs 0 minutes after the beginning of reaction): 0.2% | presence in reaction mixture with human serum (in vitro [5]): substantially disappeared | detection in rat plasma after subcutaneous administration [3]: hardly detected | AUC (in vivo [4]): 0.0832 nM·h | Cmax (in vivo [4]; plasma): 0.165 nM

B2: [Gly-44]hAM(13-52) (peptide)
peptide: SFGCRFGTCTVQKLAHQIYQFTDKDKDNVAPGSKISPQGY-NH2
modifications: disulfide 4-9; N-terminus assumed
SMILES: CC[C@H](C)[C@H](NC(=O)[C@H](CCC(N)=O)NC(=O)[C@H](Cc1c[nH]cn1)NC(=O)[C@H](C)NC(=O)[C@H](CC(C)C)NC(=O)[C@H](CCCCN)NC(=O)[C@H](CCC(N)=O)NC(=O)[C@@H](NC(=O)[C@@H](NC(=O)[C@@H]1CSSC[C@H](NC(=O)CNC(=O)[C@H](Cc2ccccc2)NC(=O)[C@@H](N)CO)C(=O)N[C@@H](CCCNC(=N)N)C(=O)N[C@@H](Cc2ccccc2)C(=O)NCC(=O)N[C@@H]([C@@H](C)O)C(=O)N1)[C@@H](C)O)C(C)C)C(=O)N[C@@H](Cc1ccc(O)cc1)C(=O)N[C@@H](CCC(N)=O)C(=O)N[C@@H](Cc1ccccc1)C(=O)N[C@H](C(=O)N[C@@H](CC(=O)O)C(=O)N[C@@H](CCCCN)C(=O)N[C@@H](CC(=O)O)C(=O)N[C@@H](CCCCN)C(=O)N[C@@H](CC(=O)O)C(=O)N[C@@H](CC(N)=O)C(=O)N[C@H](C(=O)N[C@@H](C)C(=O)N1CCC[C@H]1C(=O)NCC(=O)N[C@@H](CO)C(=O)N[C@@H](CCCCN)C(=O)N[C@H](C(=O)N[C@@H](CO)C(=O)N1CCC[C@H]1C(=O)N[C@@H](CCC(N)=O)C(=O)NCC(=O)N[C@@H](Cc1ccc(O)cc1)C(N)=O)[C@@H](C)CC)C(C)C)[C@@H](C)O
logarithmic values of 50%-effective concentration (pEC50) for intracellular cAMP concentration-increasing activity [6]: 7.96 pEC50

Now from value to molecule:

logarithmic values of 50%-effective concentration (pEC50) for intracellular cAMP concentration-increasing activity [6]: 8.71 pEC50
B1: [des-Arg-44]hAM(13-52) (peptide)
peptide: SFGCRFGTCTVQKLAHQIYQFTDKDKDNVAPSKISPQGY-NH2
modifications: disulfide 4-9; N-terminus assumed
SMILES: CC[C@H](C)[C@H](NC(=O)[C@H](CCC(N)=O)NC(=O)[C@H](Cc1c[nH]cn1)NC(=O)[C@H](C)NC(=O)[C@H](CC(C)C)NC(=O)[C@H](CCCCN)NC(=O)[C@H](CCC(N)=O)NC(=O)[C@@H](NC(=O)[C@@H](NC(=O)[C@@H]1CSSC[C@H](NC(=O)CNC(=O)[C@H](Cc2ccccc2)NC(=O)[C@@H](N)CO)C(=O)N[C@@H](CCCNC(=N)N)C(=O)N[C@@H](Cc2ccccc2)C(=O)NCC(=O)N[C@@H]([C@@H](C)O)C(=O)N1)[C@@H](C)O)C(C)C)C(=O)N[C@@H](Cc1ccc(O)cc1)C(=O)N[C@@H](CCC(N)=O)C(=O)N[C@@H](Cc1ccccc1)C(=O)N[C@H](C(=O)N[C@@H](CC(=O)O)C(=O)N[C@@H](CCCCN)C(=O)N[C@@H](CC(=O)O)C(=O)N[C@@H](CCCCN)C(=O)N[C@@H](CC(=O)O)C(=O)N[C@@H](CC(N)=O)C(=O)N[C@H](C(=O)N[C@@H](C)C(=O)N1CCC[C@H]1C(=O)N[C@@H](CO)C(=O)N[C@@H](CCCCN)C(=O)N[C@H](C(=O)N[C@@H](CO)C(=O)N1CCC[C@H]1C(=O)N[C@@H](CCC(N)=O)C(=O)NCC(=O)N[C@@H](Cc1ccc(O)cc1)C(N)=O)[C@@H](C)CC)C(C)C)[C@@H](C)O

logarithmic values of 50%-effective concentration (pEC50) for intracellular cAMP concentration-increasing activity [6]: 8.29 pEC50
B3: [Phe-44]hAM(13-52) (peptide)
peptide: SFGCRFGTCTVQKLAHQIYQFTDKDKDNVAPFSKISPQGY-NH2
modifications: disulfide 4-9; N-terminus assumed
SMILES: CC[C@H](C)[C@H](NC(=O)[C@H](CCC(N)=O)NC(=O)[C@H](Cc1c[nH]cn1)NC(=O)[C@H](C)NC(=O)[C@H](CC(C)C)NC(=O)[C@H](CCCCN)NC(=O)[C@H](CCC(N)=O)NC(=O)[C@@H](NC(=O)[C@@H](NC(=O)[C@@H]1CSSC[C@H](NC(=O)CNC(=O)[C@H](Cc2ccccc2)NC(=O)[C@@H](N)CO)C(=O)N[C@@H](CCCNC(=N)N)C(=O)N[C@@H](Cc2ccccc2)C(=O)NCC(=O)N[C@@H]([C@@H](C)O)C(=O)N1)[C@@H](C)O)C(C)C)C(=O)N[C@@H](Cc1ccc(O)cc1)C(=O)N[C@@H](CCC(N)=O)C(=O)N[C@@H](Cc1ccccc1)C(=O)N[C@H](C(=O)N[C@@H](CC(=O)O)C(=O)N[C@@H](CCCCN)C(=O)N[C@@H](CC(=O)O)C(=O)N[C@@H](CCCCN)C(=O)N[C@@H](CC(=O)O)C(=O)N[C@@H](CC(N)=O)C(=O)N[C@H](C(=O)N[C@@H](C)C(=O)N1CCC[C@H]1C(=O)N[C@@H](Cc1ccccc1)C(=O)N[C@@H](CO)C(=O)N[C@@H](CCCCN)C(=O)N[C@H](C(=O)N[C@@H](CO)C(=O)N1CCC[C@H]1C(=O)N[C@@H](CCC(N)=O)C(=O)NCC(=O)N[C@@H](Cc1ccc(O)cc1)C(N)=O)[C@@H](C)CC)C(C)C)[C@@H](C)O
